Reference: patent US4950647A, “T cell immunopotentiator” (Nucleic Acid Research Institute, priority 1988, dated 1990)

Tests used:
[1] = Immune system enhancement / suppression; details: β analog: at the same concentrations at which the compound is immunostimulatory
macrophages and NK cells = details: cited from earlier work
[2] = test system: human lymphocytes (peripheral blood mononuclear cells); details: known; cited from earlier work
B cells = details: predominantly a subset of mature B lymphocytes; cited from earlier work

Compound	immunosuppressive / immune enhancing effect [1]	activation of macrophages and NK cells (macrophages and NK cells)	activation of lymphocytes to proliferate [2]	stimulation of B cell proliferation (B cells)
Nc1cc2c(ncn2[C@H]2C[C@H](O)[C@@H](CO)O2)c(=O)[nH]1 [2'-deoxy-3-deazaguanosine]	immunosuppressive	–	–	–
Nc1nc2c(ncn2[C@H]2C[C@H](O)[C@@H](CO)O2)c(=O)[nH]1 [2'-deoxyguanosine]	not immune system enhancers	–	–	–
Nc1cc2c(ncn2[C@@H]2O[C@H](CO)[C@@H](O)[C@H]2O)c(=O)[nH]1 [3-deazaguanosine]	not immune system enhancers	–	–	–
Nc1nc2c(nc(Br)n2[C@@H]2O[C@H](CO)[C@@H](O)[C@H]2O)c(=O)[nH]1 [8-bromoguanosine]	–	activate macrophages and NK cells	activate lymphocytes to proliferate	stimulate proliferation of B cells
Nc1nc2c(nc(S)n2[C@@H]2O[C@H](CO)[C@@H](O)[C@H]2O)c(=O)[nH]1 [8-mercaptoguanosine]	–	–	activate lymphocytes to proliferate	stimulate proliferation of B cells
